Measurements: publication PMC6271545, “Comparative Pharmacokinetics Study of Sinomenine in Rats after Oral Administration of Sinomenine Monomer and Sinomenium Acutum Extract” (Molecules, 2014)

Test: Pharmacokinetics of sinomenine in rat plasma after oral administration of sinomenine monomer and Sinomenium acutum extract
Conditions: male, Wistar

## COC1=C[C@H]2[C@H]3Cc4ccc(OC)c(O)c4[C@@]2(CCN3C)CC1=O [Sinomenine, 7,8-didehydro-4-hydroxy-3,7-dimethoxy-17-methylmorphinane-6-one]
30 mg/kg
  AUC(0-inf): 32800 ± 5370 ng·h/mL
  AUC(0-t): 29200 ± 4060 ng·h/mL
  CL/F: 15.6 mL/min/kg
  Cmax: 5240 ± 390 ng/mL
  MRT inf: 7.3 ± 0.889 h
  Tmax: 1.08 ± 0.204 h
  half-life: 4.88 ± 0.635 h
60 mg/kg
  AUC(0-inf): 94000 ± 11200 ng·h/mL
  AUC(0-t): 78900 ± 5130 ng·h/mL
  CL/F: 10.8 mL/min/kg
  Cmax: 11600 ± 942 ng/mL
  MRT inf: 8.8 ± 1.91 h
  Tmax: 1.5 ± 0.316 h
  half-life: 5.77 ± 1.59 h
